How the values were obtained:
[1] = tested on: Artemia; experiment: Toxicity in brine shrimp; assay type: organism-based; conditions: in vivo
[2] = tested on: Agrobacterium tumefaciens; experiment: Antitumor activity against Agrobacterium tumefaciens-induced crown gall tumors in potato tubers by potato disk assay; assay type: functional

Row | SMILES | LC50 [1] | inhibition (INH) [2]
1 | CC(=O)O.CC1=CCCC2[C@](C)(Cc3cc(O)ccc3O)[C@@H](C)CC[C@]12C (stereo partly specified) [AVAROL MONOACETATE] | 0.09 ppm | 59%
2 | CC1=CCC[C@H]2[C@](C)(Cc3cc(O)ccc3O)[C@@H](C)CC[C@]12C [AVAROL] | 0.18 ppm | 64%
3 | CC1=CCC[C@H]2[C@](C)(CC3=CC(=O)C=CC3=O)[C@@H](C)CC[C@]12C [AVARONE] | 0.14 ppm | 63%

— ChEMBL document CHEMBL1147289, “A new bioactive derivative of avarol from the marine sponge Dysidea avara” (J Nat Prod, 1989)
